Reference: patent US11820832B2, “Bispecific HER2 and CD3 binding molecules” (MEMORIAL SLOAN KETTERING CANCER CENTER, priority 2014, dated 2023)
pKd: −log10 of the molar value.

Assays:
[1] = test system: HeLa cervical carcinoma cells; experiment: Cell proliferation assay (WST-8); assay type: cell-based, human; settings: 10 nM kinase inhibitors, 10 μg/mL antibodies
Protocol: (§1) Cell proliferation was determined using an ELISA plate reader and the WST-8 kit (Dojindo technologies) following the manufacturer's instructions and using the formula: % survival rate=(Sample-Background)/(Negative control-Background). Lapatinib (MSKCC pharmacy) was ground using a mortar and pestle and suspended in DMSO as previously described. To determine statistical significance, the results were analyzed using one-way ANOVA using Prism 6.0.
(§2) For cell proliferation assays, 5,000 tumor cells were plated using RPMI-1640 supplemented with 10% FBS in a 96 well plate for 36 hours before being treated with lapatinib or the antibodies at the specified concentrations. Cell proliferation was determined using an ELISA plate reader and the WST-8 kit (Dojindo technologies) following the manufacturer's instructions and using the formula: % survival rate=(Sample-Background)/(Negative control-Background). Lapatinib (Memorial Sloan Kettering Cancer Center pharmacy) was ground using a mortar and pestle and suspended in DMSO as previously described (Chen et al., 2012, Molecular cancer therapeutics 11:660-669). To determine statistical significance, the results were analyzed using one-way ANOVA using Prism 6.0.
(§3) For tumor cell proliferation, 5,000 tumor cells were plated using RPMI-1640 supplemented with 10% fetal bovine serum (“FBS”) in a 96 well plate for 36 hours before being treated with—kinase inhibitors or the antibodies at the specified concentration. Cell proliferation was determined using the cell counting WST-8 kit (Dojindo technologies) following the manufacturer's instructions and using the formula: % survival rate=(Sample-Background)/(Negative control-Background). Lapatinib was ground using a mortar and pestle and suspended in DMSO as previously described (Chen et al., Molecular cancer therapeutics 2012; 11:660-9). To determine statistical significance, the results were analyzed using one-way ANOVA using Prism 6.0.

SCCHN cell line PCI-30 = experiment: Cell proliferation assay (WST-8); assay type: cell-based, human; settings: 10 nM kinase inhibitors, 10 μg/mL antibodies
Protocol: as §1, §2, §3

U2OS osteosarcoma cells = experiment: Cell proliferation assay (WST-8); assay type: cell-based, human; settings: 10 nM kinase inhibitors, 10 μg/mL antibodies
Protocol: as §1, §2, §3

[2] = test system: HeLa cervical cancer cells; experiment: HER2-BsAb redirected T cell cytotoxicity, 51Cr release assay; assay type: cell-based, human; settings: pretreatment with lapatinib
Protocol: (§4) The ^51Cr release assay was performed with effector T cells cultured in vitro in the presence of anti-CD3 and anti-CD28 for about 14 days. […] 5000 target cells/well were mixed with 50,000 effector cells (E:T=10:1) and BsAb antibodies in 96-well polystyrene round-bottom plates (BD Biosciences) to a final volume of 250 μl/well. The plates were incubated at 37° C. for 4 h. […] Percentage of specific release was calculated using the formula: (experimental cpm−background cpm)/(total cpm−background cpm)×100%, where cpm represented counts per minute of ^51Cr released. […] EC50 was calculated using SigmaPlot software.
(§5) Cell cytotoxicity was assayed by ^51Cr release as previously described (Xu et al., Cancer immunology research 2015; 3:266-77), and EC50 was calculated using SigmaPlot software. Effector PBMC cells were purified from buffy coats purchased from the New York Blood Center. ATCs were first purified from human PBMC using Pan T cell isolation kit, and then activated and expanded for approximately 14 days with CD3/CD28 Dynabeads (Invitrogen) according to manufacturer's protocol.

[3] = test system: trastuzumab-sensitive breast carcinoma cell line SKBR3; experiment: Cell proliferation assay (WST-8); assay type: cell-based, human; settings: lapatinib 10 nM, 72 hours
Protocol: as §1, §2, §3

[4] = test system: HCC1954 breast cancer xenografts; experiment: Xenograft, subcutaneous tumor plus intravenous effector cells; assay type: in vivo, DKO mice; settings: s.c. HCC1954; for tumor volume changes, PD1/PDL1 blockade resistant model: i.v. PBMC 7.5×10^6 once per week for 2 weeks, 100 μg each twice per week for 4 weeks
Excerpt: For in vivo therapy studies, BALB-Rag2-/−IL-2R-γc-KO (“DKO”) mice (derived from colony of Dr. Mamoru Ito, CIEA, Kawasaki, Japan; see, e.g., Koo et al., 2009, Expert Rev Vaccines 8:113-20 and Andrade et al., 2011, Arthritis Rheum 63:2764-73) were used. […] Subcutaneous xenografts were created with 5×10^6 cells suspended in Matrigel (Corning Corp, Tewksbury Mass.) and implanted in the flank of DKO mice. Effector peripheral blood mononuclear cell (PBMC) cells were purified from buffy coats purchased from the New York Blood Center. Prior to every experimental procedure, PBMCs were analyzed for their percentage of CD3, CD4, CD8 and CD56 cells to ensure consistency. […] Tumor size was measured using (1) hand-held TM900 scanner (Pieira, Brussels, BE); (2) Calipers; or (3) bioluminescence. Bioluminescence imaging was conducted using the Xenogen In Vivo Imaging System (IVIS) 200 (Caliper LifeSciences). Briefly, mice were injected intravenously with 0.1 mL solution of D-luciferin (Gold Biotechnology; 30 mg/mL stock in PBS). Images were collected 1 to 2 minutes after injection using the following parameters: a 10- to 60-second exposure time, medium binning, and an 8 f/stop. Bioluminescence image analysis was performed using Living Image 2.6 (Caliper LifeSciences).
For in vivo therapy studies, BALB-Rag2-/−IL-2R-γc-KO (DKO) mice (derived from colony of Dr. Mamoru Ito, CIEA, Kawasaki, Japan)(Koo et al., Expert Rev Vaccines 2009; 8:113-20; Andrade et al., Arthritis Rheum 2011; 63:2764-73) were used. […] Effector PBMC cells and ATCs were prepared as described above. Prior to every experimental procedure, PBMCs and ATCs were analyzed by FACS for their percentage of CD3, CD4, CD8 and CD56 cells to ensure consistency. […] Tumor size was measured using 1) hand-held TM900 scanner (Pieira, Brussels, BE), 2) Calipers, or 3) Bioluminescence. […]

naïve T cells = experiment: T cell proliferation assay (WST-8); assay type: cell-based, human; settings: 67 nM antibody, absence of tumor targets, 6 days
Protocol: For T cell proliferation, naïve T cells were purified from human PBMC using Pan T cell isolation kit (Miltenyi Biotec). 2×10^5 purified T cells were mixed with different antibodies in 96-well cell culture plate to a final volume of 250 μl/well. T cells were cultured and maintained in RPMI-1640 supplemented with 10% FBS in 37° C. for 6 days. T cell proliferation was quantitated using the WST-8 kit as described above.

[5] = test system: naïve T cells with or without NCI-N87 tumor cells; experiment: Cytokine release assay with naive T cells; assay type: cell-based, human; settings: 16.7 nM antibody, 24 hours
Protocol: Cytokine release was assayed as previously described (Ahmed et al., Oncolmmunology 2015; 4:e989776), using naïve T cells prepared as described above. T cells (200,000/well) were cultured with or without NCI-N87 tumor cells (10,000/well) for 24 hours before supernatants being harvested for ELISA-based cytokine assay.

CD3 = CD3 (Homo sapiens, UniProt P07766); experiment: Binding affinity analysis by Biacore (Surface Plasmon Resonance); settings: antigen CD3, Biacore
Protocol: Binding assays were performed by Surface Plasmon Resonance using Biacore T100 similar as described in Okazaki et al., 2004, J Mol Biol; 336(5): 1239-1249.

HER2-positive cells = experiment: Blocking of HER2-BsAb induced T cell cytotoxicity; assay type: cell-based, human; settings: HER2-positive cells pre-incubated with blocking antibody
Protocol: as §4

[6] = test system: HER2(+) SCCHN cell line PCI-13; experiment: Blocking of HER2-BsAb T-cell cytotoxicity by trastuzumab or huOKT3; assay type: cell-based, human; settings: 0.1 μg/mL HER2-BsAb with 10 μg/mL blocking antibody
Protocol: as §5

Chain of CD3 (P07766 23-126 limits assumed): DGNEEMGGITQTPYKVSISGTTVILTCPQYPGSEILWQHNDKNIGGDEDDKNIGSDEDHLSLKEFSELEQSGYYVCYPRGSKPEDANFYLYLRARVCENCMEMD

## C#Cc1cccc(Nc2ncnc3cc(OCCOC)c(OCCOC)cc23)c1 [erlotinib]
[1]
  sensitivity of cells in proliferation assay: pan-resistant
SCCHN cell line PCI-30
  sensitivity of cells in proliferation assay: resistant
U2OS osteosarcoma cells
  sensitivity of cells in proliferation assay: minimal sensitivity

## CS(=O)(=O)CCNCc1ccc(-c2ccc3ncnc(Nc4ccc(OCc5cccc(F)c5)c(Cl)c4)c3c2)o1 [lapatinib]
[2]
  effect of pretreatment on HER2-BsAb mediated cytotoxicity: increased sensitivity
[1]
  sensitivity of cells in proliferation assay: pan-resistant
SCCHN cell line PCI-30
  sensitivity of cells in proliferation assay: resistant
U2OS osteosarcoma cells
  sensitivity of cells in proliferation assay: minimal sensitivity
[3]
  inhibition of cell proliferation (positive control): strongest inhibition of cell proliferation

## CCOc1cc2ncc(C#N)c(Nc3ccc(OCc4ccccn4)c(Cl)c3)c2cc1NC(=O)/C=C/CN(C)C [neratinib]
[1]
  sensitivity of cells in proliferation assay: pan-resistant
SCCHN cell line PCI-30
  sensitivity of cells in proliferation assay: resistant
U2OS osteosarcoma cells
  sensitivity of cells in proliferation assay: minimal sensitivity

## Atezolizumab
[4]
  tumor volume changes, PD1/PDL1 blockade resistant model: no effect

## Pembrolizumab
[4]
  tumor volume changes, PD1/PDL1 blockade resistant model: no effect

## huOKT3 Fab: monovalent Fab prepared from huOKT3 IgG1
naïve T cells
  T cell proliferation: negligible effects
[5]
  cytokine release in the absence of tumor targets: background cytokine release

## huOKT3 IgG1-aGlyco: parental aglycosylated huOKT3 IgG1
CD3
  pKd: 7.19
  koff: 0.109 s⁻¹
  kon: 1.68e+06 M⁻¹ s⁻¹

## huOKT3: humanized OKT3 anti-CD3 IgG1, same variable sequences as in huOKT3 scFv
HER2-positive cells
  blocking of the ability of HER2-BsAb to induce T cell cytotoxicity: blocked
naïve T cells
  T cell proliferation: robust T cell proliferation
[5]
  cytokine release in the absence of tumor targets: substantially more cytokines
[6]
  blocking of HER2-BsAb mediated T-cell cytotoxicity: prevented
[4]; i.v. PBMC once a week for 3 weeks, i.v. antibody twice a week for 3 weeks
  tumor growth: only modest effects
